Data published in patent US11980188B2, “Spiro cyclohexanedione derivates as herbicides” (SYNGENTA PARTICIPATIONS AG, priority 2018, dated 2024).

How the values were obtained:
Experiment in all cases: Glasshouse herbicide test, pre- and post-emergence, percentage damage
Assay type in all cases: in vivo
[1] = tested on: Echinochloa crus-galli (ECHCG); conditions: 250 g/h, evaluated after 13 days, percentage damage on five point scale; for ECHCG PRE: pre-emergence; for ECHCG POST: post-emergence
Protocol: (§1) Seeds of a variety of test species are sown in standard soil in pots (Lolium perenne (LOLPE), Setaria faberi (SETFA), Alopecurus myosuroides (ALOMY), Echinochloa crus-galli (ECHCG), Avena fatua (AVEFA)). After cultivation for one day (pre-emergence) or after 8 days cultivation (post-emergence) under controlled conditions in a glasshouse (at 24/16° C., day/night; 14 hours light; 65% humidity), the plants are sprayed with an aqueous spray solution derived from the formulation of the technical active ingredient in acetone/water (50:50) solution containing 0.5% Tween 20 (polyoxyethelyene sorbitan monolaurate, CAS RN 9005-64-5). Compounds are applied at […]. The test plants are then grown in a glasshouse under controlled conditions in a glasshouse (at 24/16° C., day/night; 14 hours light; 65% humidity) and watered twice daily. After 13 days for pre and post-emergence, the test is evaluated for the percentage damage caused to the plant. The biological activities are shown in the following table on a five point scale (5=80-100%; 4=60-79%; 3=40-59%; 2=20-39%; 1=0-19%).

Lolium perenne (LOLPE) = conditions: 250 g/h, evaluated after 13 days, percentage damage on five point scale; for LOLPE POST: post-emergence; for LOLPE PRE: pre-emergence
Protocol: as §1

Setaria faberi (SETFA) = conditions: 250 g/h, evaluated after 13 days, percentage damage on five point scale; for SETFA POST: post-emergence; for SETFA PRE: pre-emergence
Protocol: as §1

[2] = tested on: Alopecurus myosuroides (ALOMY); conditions: 250 g/h, evaluated after 13 days, percentage damage on five point scale; for ALOMY POST: post-emergence; for ALOMY PRE: pre-emergence
Protocol: as §1

Avena fatua (AVEFA) = conditions: 250 g/h, evaluated after 13 days, percentage damage on five point scale; for AVEFA POST: post-emergence; for AVEFA PRE: pre-emergence
Protocol: as §1

SMILES | ECHCG PRE [1] | LOLPE POST (Lolium perenne (LOLPE)) | LOLPE PRE (Lolium perenne (LOLPE)) | SETFA POST (Setaria faberi (SETFA)) | SETFA PRE (Setaria faberi (SETFA)) | ALOMY POST [2] | ALOMY PRE [2] | AVEFA POST (Avena fatua (AVEFA)) | AVEFA PRE (Avena fatua (AVEFA)) | ECHCG POST [1]
COc1cc(-c2ccc(C#N)cn2)cc(OC)c1C1C(=O)CC2(CCN(C(C)=O)CC2)CC1=O [Compound A16] | 5 (5=80-100%) | 4 (4=60-79%) | 3 (3=40-59%) | 5 (5=80-100%) | 4 (4=60-79%) | 5 (5=80-100%) | 1 (1=0-19%) | 5 (5=80-100%) | 4 (4=60-79%) | 
Cc1cc(-c2ncc(F)cn2)cc(C)c1C1C(=O)CC2(CCN(C(=O)c3ccccc3)CC2)CC1=O [Compound A33] | 5 (5=80-100%) | 5 (5=80-100%) | 5 (5=80-100%) | 5 (5=80-100%) | 5 (5=80-100%) | 5 (5=80-100%) | 5 (5=80-100%) | 5 (5=80-100%) | 5 (5=80-100%) | 5 (5=80-100%)
CC(=O)N1CCC2(CC1)CC(=O)C(c1c(C)cc(-n3cc(F)cn3)cc1C)C(=O)C2 [Compound A47] | 3 (3=40-59%) | 5 (5=80-100%) | 4 (4=60-79%) | 5 (5=80-100%) | 4 (4=60-79%) | 5 (5=80-100%) | 2 (2=20-39%) | 5 (5=80-100%) | 4 (4=60-79%) | 1 (1=0-19%)
CON1CCC2(CC1)CC(=O)C(c1c(C)cc(-c3ccc(F)cc3)cc1C)C(=O)C2 [Compound A6] | 5 (5=80-100%) | 5 (5=80-100%) | 5 (5=80-100%) | 5 (5=80-100%) | 5 (5=80-100%) | 5 (5=80-100%) | 5 (5=80-100%) | 5 (5=80-100%) | 5 (5=80-100%) | 5 (5=80-100%)
Cc1cc(-c2ccc(C#N)cn2)cc(C)c1C1C(=O)CC2(CCN(C(=O)c3ccccn3)CC2)CC1=O [Compound A24] | 5 (5=80-100%) | 5 (5=80-100%) | 5 (5=80-100%) | 5 (5=80-100%) | 5 (5=80-100%) | 5 (5=80-100%) | 5 (5=80-100%) | 5 (5=80-100%) | 5 (5=80-100%) | 5 (5=80-100%)
COc1cc(-c2ccc(F)cc2)cc(C)c1C1C(=O)CC2(CCN(C(=O)NC(=O)c3ccccn3)CC2)CC1=O [Compound A73] | 4 (4=60-79%) | 5 (5=80-100%) | 1 (1=0-19%) | 5 (5=80-100%) | 5 (5=80-100%) |  | 5 (5=80-100%) | 5 (5=80-100%) | 1 (1=0-19%) | 5 (5=80-100%)
CC(=O)N1CCC2(CC1)CC(=O)C(c1c(C)cc(-c3ncc(F)cc3F)cc1C)C(=O)C2 [Compound A48] | 5 (5=80-100%) | 5 (5=80-100%) | 5 (5=80-100%) | 5 (5=80-100%) | 5 (5=80-100%) | 5 (5=80-100%) | 5 (5=80-100%) | 5 (5=80-100%) | 5 (5=80-100%) | 5 (5=80-100%)
Cc1cc(-c2ccc(F)cc2)cc(C)c1C1C(=O)CC2(CCN(C(=O)c3ccccc3)CC2)CC1=O [Compound A54] | 5 (5=80-100%) | 5 (5=80-100%) | 5 (5=80-100%) | 5 (5=80-100%) | 5 (5=80-100%) |  | 5 (5=80-100%) | 5 (5=80-100%) | 5 (5=80-100%) | 5 (5=80-100%)
